# Test results published in patent publication EP0583821A1, “Atriopeptins, guanylate cyclase activators, and phosphodiesterase inhibitors as treatment for glaucoma, hydrocephalus and cerebral edema (cranial fluid volume dysfunction)” (THE GENERAL HOSPITAL CORPORATION, priority 1987, dated 1988).
# What was measured:
# [1] = test system: volunteer human; assay: Eye drop in a volunteer human: IOP, blood pressure and pulse; assay type: in vivo; conditions: 50µl of 0.1% aqueous solution in one eye
# Method: The effect of administration of a nitroglycerine eye drop preparation (50µl of 0.1% aqueous solution in one eye) in a volunteer human is illustrated in Figure 14. IOP was measured by applanation pnumatonometry and blood pressure and pulse were measured by arm cuff.
# [2] = test system: rabbits; assay: Systemic blood pressure and pulse rate (tail cuff) after eye drops; assay type: in vivo, rabbit; conditions: 0.03% eye drops
# Method: (§1) The effect of nitroglycerine eye drops on rabbit intraocular pressure was also measured. The IOP of 8 conscious, male albino rabbits (3-4 kg) was measured by applanation pnumatonometry after topical anesthesia with 0.4% benoxinate. Nitroglycerine in phosphate buffered saline, pH 7.4, was given unilaterally, in two 25µl drops spaced five minutes apart. Blood pressure and pulse rate were measured by a photoelectric detector using an automated external tail cuff. […] By 24 hours, pressure had returned to normal.
# [3] = test system: rabbits; assay: Intraocular pressure and ocular observations after topical (eye drop) application; assay type: in vivo, rabbit
# Method: The measurement of intraocular pressure (IOP), was performed using procedures similar to those described in Nathanson, Brit. J. Pharmacol., 73:97 (1981) and Nathanson, Current Eye Res., 4:191 (1985). Briefly, male (3-5 kg), New Zealand white rabbits were housed under standard conditions and exposed to a 12 hr light-dark cycle. IOP was measured with a Perkins applanation tonometer after topical anesthesia with 0.4% benoxinate (and 0.25% sodium fluorescein). The tonometer had been calibrated previously by connecting the anterior chamber of enucleated rabbit eyes to a manometer (and reservoir) and taking tonometer readings at different pressures. A number of preliminary IOP readings were made in order to accommodate the animals to the measurement procedure. Readings were then taken just prior to drug or vehicle injection and at 3, 9, 20, 27, 44, 51, 72, and 144 hours post-injection.
# A potent PDE inhibitor of the arylxanthine class, 1,3-dibutylxanthine, was applied unilaterally and topically to rabbit eyes in a 0.5% solution. […] The IOP was decreased 4 mm (Hg) in the ipsilateral eye (Figure 8).
# Again there was about a 4 mm (Hg) decrease in intraocular pressure. […] This xanthine inhibited the enzyme with an IC₅₀ (concentration necessary for 50% enzyme inhibition) of 25 uM.
# as §1
# [4] = test system: guanylate cyclase; assay: Guanylate cyclase activation in crude broken-cell preparation of ciliary process; assay type: biochemical, rabbit; conditions: low concentrations
# Method: Generally, the broken cell preparations are prepared according to the method described in a paper by Nathanson et al., (Molecular Pharmacology 20:68 (1981), which is herein incorporated by reference. Choroid epithelial cells are prepared as described in Example 1. To measure activity of atriopeptins, analogues, or agonists thereof, washed particulate cell preparations are prepared by using the pellet obtained following high speed centrifugation. To measure direct activators of guanylate cyclase, the crude broken-cell preparation without centrifugation is used. Guanylate cyclase activity is measured in appropriate buffer-containing GTP, cofactors, tissue fraction, and the compound to be tested. […] Cyclic GMP can be measured by any test which indicates the presence thereof, typically by the radioimmunoassay as described in Example 6. […] Ka^B, where B is the test compound, is compared with the constant (Ka^ANF) determined in an analogous way using rat atrial natriuretic factor (rANF) as a standard. […]
# The effect of rANP on membrane-bound guanylate cyclase and adenylate cyclase activity in various brain-barrier tissues and tissue fractions from rabbit was compared with its activity in cerebrum and cerebellum. Guanylate cyclase was measured as the rate of cyclic GMP formation by modifications of the technique of Waldman et al., supra, incorporated herein by reference. […]
smiles,measurement,setting,value
"O=[N+]([O-])OCC(CO[N+](=O)[O-])O[N+](=O)[O-] [nitroglycerine, 1,2,3-propanetriol trinitrate]",effect on IOP,[1],significantly decreased IOP
same,systemic blood pressure or pulse,[1],without change
same,"change in pulse rate or in systolic, diastolic or mean blood pressure",[2],no significant change
same,decrease in IOP at maximum,"[3]; 0.03% (gm/100ml) solution, two 25µl drops, 8 rabbits",5.2 mm Hg
same,IOP at six hours,[3]; 0.03% solution,still significantly reduced
same,time of greatest IOP decrease,[3]; 0.03% solution,greatest at one hour
same,time until pressure had returned to normal,[3]; 0.03% solution,≤ 24 h
same,effect of higher doses on IOP,"[3]; 50µl eye drops, doses above 0.03%, Fig. 13",no additional decrease in IOP
same,effect of lower doses on IOP,"[3]; 50µl eye drops, lower doses, Fig. 13",less effective
same,conjunctival inflammation and pupillary diameter,[3]; all doses,At no dose did conjunctival inflammation nor any change in pupillary diameter occur
same,contralateral decrease in pressure relative to that seen ipsilaterally,[3]; higher doses,40-75%
same,hyperemia of the conjunctival vessels,[3]; higher doses (0.1%),"slight, transient (five minutes) hyperemia"
same,stimulation of basal guanylate cyclase activity,[4],significant stimulation
